The results in this text go back to ChEMBL document CHEMBL5512606, “An overview of the functions of p53 and drugs acting either on wild- or mutant-type p53” (Eur J Med Chem, 2024).

Each structure is given as a SMILES string.

Data set [1] concerns RS4-11. Kind of data set: Antitumor activity in human RS4-11 cells xenografted in mouse model assessed as tumor growth regression at 200 mg/kg,po relative to control. In kind it is functional. A general note: Xenograft models place foreign cells or tissue in a host animal.
For data set [2], the system named is LNCaP. Kind of data set: Antitumor activity in human LNCaP cells xenografted in mouse model assessed as tumor growth regression at 200 mg/kg,po relative to control. In kind it is functional.
A short description of data set [3]: Oral bioavailability in F344/N Jcl-rnu rat at 40 to 80 mg/kg/day measured after 28 days. It is filed as ADME, organism-based. As to conditions: in vivo, dose 40-80 mg/kg/day, time 28 day.
The nature of data set [4]: Oral bioavailability in male Crl:CD Sprague-Dawley rat at 40 to 80 mg/kg/day measured after 28 days. In kind it is ADME, organism-based. As to conditions: in vivo, dose 40-80 mg/kg/day, time 28 day.
The nature of data set [5]: Half life in F344/N Jcl-rnu rat at 40 to 80 mg/kg/day, po or iv measured after 28 days. In kind it is ADME, organism-based. As to conditions: in vivo, dose 40-80 mg/kg/day, time 28 day.
The nature of data set [6]: Half life in male Crl:CD Sprague-Dawley rat at 40 to 80 mg/kg/day, po or iv measured after 28 days. In kind it is ADME, organism-based. The conditions noted are these: in vivo, dose 40-80 mg/kg/day, time 28 day.

For `CC(C)(C)C[C@@H]1N[C@@H](C(=O)N[C@H]2CC[C@H](O)CC2)[C@H](c2cccc(Cl)c2F)[C@]12C(=O)Nc1cc(Cl)ccc12` [SAR-405838], the figures for the Activity in data set [1] and in data set [2] were 100% and 80%, respectively.

Consider `COc1ccc(/C=C/c2nc(NCCCN(C)C)c3ccccc3n2)cc1`, for which the bioavailability in data set [3] and in data set [4] was 12% each time. Besides, the half-life in data set [5] and in data set [6] was 14 h throughout.

As a reminder, the bioavailability is the share of a dose that reaches the circulation, judged against a reference dose that is usually intravenous. Usually half-life stands for the time needed for the level to fall by half in the phase considered.
